# Source: ChEMBL document CHEMBL3882724 (2013)
# Legend:
# [1] = biological target: T1, Steroid 17-alpha-hydroxylase/17,20 lyase (Homo sapiens, UniProt P05093); experiment: Inhibition of CYP17 in human testicular microsomes using 17alpha-hydroxypregnenolone as substrate assessed as decrease in DHEA levels at 10 nM after 90 mins by ELISA relative to control; set-up: species or system Testis; details: 1.5 h
# T1 sequence (P05093 whole entry): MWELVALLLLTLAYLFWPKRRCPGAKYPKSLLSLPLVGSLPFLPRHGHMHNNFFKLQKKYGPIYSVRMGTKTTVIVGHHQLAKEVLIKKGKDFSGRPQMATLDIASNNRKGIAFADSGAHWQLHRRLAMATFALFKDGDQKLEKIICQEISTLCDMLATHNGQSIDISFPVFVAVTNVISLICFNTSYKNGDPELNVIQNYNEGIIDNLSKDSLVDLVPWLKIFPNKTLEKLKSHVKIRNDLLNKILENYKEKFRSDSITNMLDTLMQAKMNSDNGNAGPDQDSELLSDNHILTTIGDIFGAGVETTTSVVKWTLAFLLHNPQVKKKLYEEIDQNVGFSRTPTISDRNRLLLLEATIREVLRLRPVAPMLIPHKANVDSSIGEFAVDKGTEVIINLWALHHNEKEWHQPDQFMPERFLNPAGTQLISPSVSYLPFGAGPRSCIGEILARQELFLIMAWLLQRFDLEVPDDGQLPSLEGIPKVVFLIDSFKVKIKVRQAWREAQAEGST
# [2] = Half life in human liver microsomes at 1 uM by LC-MS/MS analysis
# [3] = Half life in rat liver microsomes at 1 uM by LC-MS/MS analysis
# [4] = biological target: T1, Steroid 17-alpha-hydroxylase/17,20 lyase; experiment: Inhibition of CYP17 in human testicular microsomes using 17alpha-hydroxypregnenolone as substrate assessed as decrease in DHEA levels after 90 mins by ELISA; set-up: species or system Testis
# [5] = biological target: T2, CYP21 (steroid 21-hydroxylase) (Homo sapiens, UniProt P08686); experiment: Inhibition of human CYP21 transfected in HEK293 cells assessed as decrease in conversion of progesterone to 11-deoxycorticosterone preincubated for 5 hrs followed by progesterone addition measured after 20 hrs by ELISA; format: cell-based; set-up: concentration or dose not given beside the values; details: HEK293 cells transfected with human CYP21, probe progesterone
# T2 sequence (P08686 whole entry): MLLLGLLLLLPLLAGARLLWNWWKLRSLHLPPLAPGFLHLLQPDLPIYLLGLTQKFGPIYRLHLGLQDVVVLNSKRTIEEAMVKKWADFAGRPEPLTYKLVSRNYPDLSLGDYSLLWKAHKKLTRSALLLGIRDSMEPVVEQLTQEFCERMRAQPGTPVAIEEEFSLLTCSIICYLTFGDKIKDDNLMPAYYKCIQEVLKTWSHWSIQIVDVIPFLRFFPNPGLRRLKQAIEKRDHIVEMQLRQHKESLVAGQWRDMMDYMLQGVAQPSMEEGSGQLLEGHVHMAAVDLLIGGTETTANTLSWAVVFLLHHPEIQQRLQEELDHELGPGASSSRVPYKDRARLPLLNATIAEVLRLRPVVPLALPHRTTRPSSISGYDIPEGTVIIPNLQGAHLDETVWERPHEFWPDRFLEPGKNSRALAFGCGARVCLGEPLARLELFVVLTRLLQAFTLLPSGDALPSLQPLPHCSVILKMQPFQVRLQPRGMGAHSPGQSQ
inhibition at 0.01 µM [1] [%],half-life at 1 µM [3] [min],IC50 [4] [µM],Compound,half-life at 1 µM [2] [min],inhibition at 20 h [5] [%]
50 to 80,10 to 60,–,CCCOc1cncc(C2=CC[C@H]3[C@@H]4CCN5CCCCC[C@]5(C)[C@H]4CC[C@]23C)c1,10 to 60,–
≥ 80,–,≤ 0.011,C[C@]12CCC(=O)CCC1=CC[C@@H]1[C@@H]2CC[C@]2(C)C(n3ccnc3)=CC[C@@H]12,1 to 50,–
1 to 50,1 to 10,–,Cc1cncc(C2=CC[C@H]3[C@@H]4CC[C@H]5COC(=O)CC[C@]5(C)[C@H]4CC[C@]23C)c1,1 to 10,–
50 to 80,–,≤ 0.011,C=Cc1cncc(C2=CC[C@H]3[C@@H]4CCN5C(=O)CCCC[C@]5(C)[C@H]4CC[C@]23C)c1,–,–
1 to 50,–,–,COc1cncc(C2=CC[C@H]3[C@@H]4CCC5=CCN(C)CC[C@]5(C)[C@H]4CC[C@]23C)c1,–,–
1 to 50,–,–,CCCOc1cncc(C2=CC[C@H]3[C@@H]4CCC5=CCN(C)CC[C@]5(C)[C@H]4CC[C@]23C)c1,–,–
50 to 80,–,≤ 0.011,CCCOc1cncc(C2=CC[C@H]3[C@@H]4CCN5C(=O)CCCC[C@]5(C)[C@H]4CC[C@]23C)c1,–,–
50 to 80,10 to 60,≤ 0.011,C[C@]12CCCCC[C@@H]1CC[C@@H]1[C@@H]2CC[C@]2(C)C(n3ccnc3)=CC[C@@H]12,10 to 60,–
1 to 50,–,–,C[C@]12CC[C@H]3[C@@H](CCN4CCCCC[C@]34C)[C@@H]1CC=C2c1cccnc1,–,–
1 to 50,–,–,Cc1cncc(C2=CC[C@H]3[C@@H]4CC[C@H]5CCCCC[C@]5(C)[C@H]4CC[C@]23C)c1,–,–
50 to 80,–,–,COc1cncc(C2=CC[C@H]3[C@@H]4CC[C@H]5CCCCC[C@]5(C)[C@H]4CC[C@]23C)c1,–,–
1 to 50,–,≤ 0.011,CN1CC=C2CC[C@@H]3[C@H](CC[C@]4(C)C(c5cccnc5)=CC[C@@H]34)[C@@]2(C)CC1,–,–
1 to 50,–,–,CN1CC[C@@]2(C)C(=CC1=O)CC[C@@H]1[C@@H]2CC[C@]2(C)C(n3cnc4ccccc43)=CC[C@@H]12,–,–
≥ 80,1 to 10,–,C[C@]12CCNC(=O)C=C1CC[C@@H]1[C@@H]2CC[C@]2(C)C(n3ncnn3)=CC[C@@H]12,1 to 10,–
50 to 80,–,≤ 0.011,C[C@]12CC[C@H]3[C@@H](CCC4=CC(=O)NCC[C@@]43C)C1=CC=C2c1cccnc1,–,–
50 to 80,–,≤ 0.011,Cc1cncc(C2=CC[C@H]3[C@@H]4CC[C@H]5CCOCC[C@]5(C)[C@H]4CC[C@]23C)c1,–,–
50 to 80,–,≤ 0.011,Cc1cncc(C2=CC[C@H]3[C@@H]4CCC5=CC(=O)N(C)CC[C@]5(C)[C@H]4CC[C@]23C)c1,–,–

inhibition at 0.01 µM [1] [%],half-life at 1 µM [3] [min],IC50 [4] [µM],Compound,half-life at 1 µM [2] [min],inhibition at 20 h [5] [%]
1 to 50,1 to 10,–,CCc1cncc(C2=CC[C@H]3[C@@H]4CCN5CCCCC[C@]5(C)[C@H]4CC[C@]23C)c1,1 to 10,–
1 to 50,–,–,C[C@]12CC[C@H]3[C@@H](CC[C@H]4CNC(=O)CC[C@@]43C)C1=CC=C2n1ccnn1,–,–
1 to 50,–,–,COc1cncc(C2=CC[C@H]3[C@@H]4CCN5CCCCC[C@]5(C)[C@H]4CC[C@]23C)c1,–,–
1 to 50,–,–,CCc1cncc(C2=CC[C@H]3[C@@H]4CC=C5CCCC[C@]5(C)[C@H]4CC[C@]23C)c1,–,–
≥ 80,1 to 10,≤ 0.011,C[C@]12CC(=O)C[C@@H]1CC[C@@H]1[C@@H]2CC[C@]2(C)C(n3ccnc3)=CC[C@@H]12,≥ 50,–
1 to 50,–,–,Cc1cncc(C2=CC[C@H]3[C@@H]4CCN5CCCCC[C@]5(C)[C@H]4CC[C@]23C)c1,–,–
1 to 50,–,–,COC1CC[C@@]2(C)[C@@H](CC[C@@H]3[C@@H]2CC[C@]2(C)C(n4ccnn4)=CC[C@@H]32)C1 (stereo not given in full),–,–
50 to 80,–,–,CCOc1cncc(C2=CC[C@H]3[C@@H]4CC[C@H]5CCOCC[C@]5(C)[C@H]4CC[C@]23C)c1,–,–
50 to 80,–,≤ 0.011,COc1cncc(C2=CC[C@H]3[C@@H]4CCC5=CC(=O)NCC[C@]5(C)[C@H]4CC[C@]23C)c1,–,–
1 to 50,–,–,CCc1cncc(C2=CC[C@H]3[C@@H]4CCC5=CCN(C)CC[C@]5(C)[C@H]4CC[C@]23C)c1,–,–
1 to 50,–,–,COC1CC[C@@]2(C)[C@@H](CC[C@@H]3[C@@H]2CC[C@]2(C)C(c4cncc(C)c4)=CC[C@@H]32)C1 (stereo not given in full),–,–
1 to 50,–,–,C[C@]12CCNC(=O)C=C1CC[C@@H]1[C@@H]2CC[C@]2(C)C(n3cnc4ccccc43)=CC[C@@H]12,–,–
≤ 11,–,0.05 to 0.08,C[C@]12CC(O)C[C@@H]1CC[C@@H]1[C@@H]2CC[C@]2(C)C(n3ccnn3)=CC[C@@H]12 (stereo not given in full),–,–
1 to 50,–,–,CCOc1cncc(C2=CC[C@H]3[C@@H]4CCC5N(C)C(=O)COC[C@]5(C)[C@H]4CC[C@]23C)c1 (stereo not given in full),–,–
1 to 50,–,–,C[C@]12CCCCC[C@@H]1CC[C@@H]1[C@@H]2CC[C@]2(C)C(c3cccnc3)=CC[C@@H]12,–,–
1 to 50,–,–,Cc1cncc(C2=CC[C@H]3[C@@H]4CCC5=CN(C)CCC[C@]5(C)[C@H]4CC[C@]23C)c1,–,–

Compound,inhibition at 0.01 µM [1] [%],half-life at 1 µM [3] [min],IC50 [4] [µM],half-life at 1 µM [2] [min],inhibition at 20 h [5] [%]
C[C@]12CCCCC1C(O)C[C@@H]1[C@@H]2CC[C@]2(C)C(n3ccnc3)=CC[C@@H]12 (stereo not given in full),50 to 80,–,≤ 0.011,1 to 50,–
Cc1cncc(C2=CC[C@H]3[C@@H]4CC(=O)C5CCCC[C@]5(C)[C@H]4CC[C@]23C)c1 (stereo not given in full),–,1 to 10,≤ 0.011,1 to 10,–
COc1cncc(C2=CC=C3[C@@H]4CC=C5C[C@@H](OC(C)=O)CC[C@]5(C)[C@H]4CC[C@]23C)c1,≥ 80,–,≤ 0.011,–,–
Cc1cncc(C2=CC[C@H]3[C@@H]4CC(O)C5CCCC[C@]5(C)[C@H]4CC[C@]23C)c1 (stereo not given in full),–,1 to 10,≤ 0.011,1 to 10,–
C[C@]12CC[C@H]3[C@@H](CC=C4C[C@@H](O)CC[C@@]43C)C1=CC=C2n1ccnc1,≥ 80,–,≤ 0.011,≥ 50,–
CC(=O)O[C@H]1CC[C@@]2(C)[C@@H](CC[C@H]3C4=CC=C(n5ccnc5)[C@@]4(C)CC[C@@H]32)C1,≥ 80,–,≤ 0.011,–,–
CC(=O)O[C@H]1CC[C@@]2(C)[C@@H](CC[C@H]3C4=CC=C(c5cccnc5)[C@@]4(C)CC[C@@H]32)C1,≥ 80,–,–,–,–
C[C@]12CC[C@H]3[C@@H](CC[C@H]4C[C@@H](O)CC[C@@]43C)C1=CC=C2c1cccnc1,≥ 80,–,≤ 0.011,≥ 50,–
C[C@]12CCCCC1=CC[C@@H]1[C@@H]2CC[C@]2(C)C(c3cccnc3)=CC[C@@H]12,50 to 80,1 to 10,–,1 to 10,–
C[C@]12CC[C@H](O)C[C@@H]1CC[C@@H]1[C@@H]2CC[C@]2(C)C(n3ccnn3)=CC[C@@H]12,≥ 80,–,≤ 0.011,–,–
C[C@]12CC[C@H]3[C@@H](CC[C@H]4C[C@@H](O)CC[C@@]43C)C1=CC=C2n1ccnn1,–,1 to 10,–,1 to 10,–
COc1cncc(C2=CC[C@H]3[C@@H]4CC(=O)C5CCCC[C@]5(C)[C@H]4CC[C@]23C)c1 (stereo not given in full),–,1 to 10,≤ 0.011,1 to 10,–
"COC1CC2[C@@H]3CC=C(n4ccnc4)[C@@]3(C)CC[C@@H]2[C@@]2(C)CCC3CC312 (single isomer, unassigned)",≥ 80,–,≤ 0.011,–,10 to 50
